Counter-ions that a name gives are not always drawn. Like-named read-outs stand apart in the source and are kept apart here.
Assays:
Ba/F3-TEL-FGFR3 cells = experiment: Ba/F3-TEL-FGFR3 cell proliferation assay (Alamar Blue); format: cell-based; settings: 72 hours, Alamar Blue; read-out: BaF3-TEL-FGFR3 prolif
[1] = test system: parental wild-type Ba/F3 cells; experiment: Ba/F3 (WT) cell proliferation assay (Alamar Blue); format: cell-based; settings: Mus musculus; for IC50: 72 hours, Alamar Blue, read-out: BaF3 WT prolif
[2] = test system: LP-1 cell line (FGF-1/Heparin induced pERK); experiment: Cell-based pERK ELISA, LP-1 cells; settings: Homo sapiens; for IC50: LP-1, read-out: LP-1 pERK ELISA (μM)
VEGFR2 = VEGFR2 (Homo sapiens (Human), UniProt P35968); experiment: VEGFR2 in vitro kinase inhibitory activity assay (TRF, Flt3 substrate); format: biochemical
[3] = BaF3, at 10 μM, read-out: BaF3 WT prolif, % inhibition
[4] = BaF3, read-out: BaF3 WT prolif, % inhibition

VEGFR2, sequence (P35968 20-1356): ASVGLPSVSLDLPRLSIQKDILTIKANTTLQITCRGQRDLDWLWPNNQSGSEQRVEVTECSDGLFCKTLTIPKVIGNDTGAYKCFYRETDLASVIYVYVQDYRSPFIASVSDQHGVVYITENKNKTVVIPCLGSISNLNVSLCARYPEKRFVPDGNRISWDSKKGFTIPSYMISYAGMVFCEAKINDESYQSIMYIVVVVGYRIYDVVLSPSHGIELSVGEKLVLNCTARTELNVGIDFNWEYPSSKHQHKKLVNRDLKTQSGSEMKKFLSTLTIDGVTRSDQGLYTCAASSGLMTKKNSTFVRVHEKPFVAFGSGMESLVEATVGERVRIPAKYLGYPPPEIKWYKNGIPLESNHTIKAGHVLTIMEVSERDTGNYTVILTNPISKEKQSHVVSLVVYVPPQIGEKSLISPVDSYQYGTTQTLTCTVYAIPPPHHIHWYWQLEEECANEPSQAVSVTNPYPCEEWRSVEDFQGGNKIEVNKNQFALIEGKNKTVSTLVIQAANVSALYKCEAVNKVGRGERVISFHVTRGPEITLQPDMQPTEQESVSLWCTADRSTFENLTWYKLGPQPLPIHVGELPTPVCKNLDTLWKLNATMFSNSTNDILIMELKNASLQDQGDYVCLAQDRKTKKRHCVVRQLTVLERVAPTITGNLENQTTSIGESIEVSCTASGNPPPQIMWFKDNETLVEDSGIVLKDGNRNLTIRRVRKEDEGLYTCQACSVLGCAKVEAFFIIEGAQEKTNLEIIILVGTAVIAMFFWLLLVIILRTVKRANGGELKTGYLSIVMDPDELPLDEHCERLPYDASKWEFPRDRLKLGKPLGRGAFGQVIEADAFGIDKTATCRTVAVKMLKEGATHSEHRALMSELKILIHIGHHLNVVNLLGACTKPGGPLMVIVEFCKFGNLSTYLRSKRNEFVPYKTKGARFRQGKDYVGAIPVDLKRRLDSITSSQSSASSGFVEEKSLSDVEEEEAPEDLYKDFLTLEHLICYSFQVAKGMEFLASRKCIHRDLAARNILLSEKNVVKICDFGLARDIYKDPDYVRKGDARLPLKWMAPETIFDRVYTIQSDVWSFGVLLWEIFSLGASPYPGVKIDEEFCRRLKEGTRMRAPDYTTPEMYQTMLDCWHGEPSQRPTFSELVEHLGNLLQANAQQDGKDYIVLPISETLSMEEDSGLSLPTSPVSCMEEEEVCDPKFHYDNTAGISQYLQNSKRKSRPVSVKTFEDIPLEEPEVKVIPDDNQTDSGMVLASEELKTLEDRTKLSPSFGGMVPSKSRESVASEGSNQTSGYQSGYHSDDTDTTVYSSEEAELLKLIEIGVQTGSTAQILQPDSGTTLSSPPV

Compound	IC50 (Ba/F3-TEL-FGFR3 cells)	IC50 [2]	IC50 ([1]; BaF3)	other results
O=C(NCC(F)(F)F)Nc1cccc(-c2cnc3cc(-c4cccnn4)ccn23)c1 [Example 9, 1-[3-(7-Pyridazin-3-ylimidazo[1,2-a]pyridin-3-yl)phenyl]-3-(2,2,2-trifluoroethyl)urea hydrochloride]	797 nM	0.14 µM	6400 nM	
CC(C)N1CC(n2cc(-c3ccn4c(-c5cccc(NC(=O)NCC(F)(F)F)c5)cnc4c3)cn2)C1 [Example 32, 1-(3-{7-[1-(1-Isopropylazetidin-3-yl)-1H-pyrazol-4-yl]imidazo[1,2-a]pyridin-3-yl}phenyl)-3-(2,2,2-trifluoroethyl)-urea]	12 nM	0.014 µM	670 nM	
CN1CCCC(n2cc(-c3ccn4c(-c5cccc(NC(=O)NCC(F)(F)F)c5)cnc4c3)cn2)C1 (stereo not drawn) [Example 38, 1-(3-{7-[1-(1-Methylpiperidin-3-yl)-1H-pyrazol-4-yl]imidazo[1,2-a]pyridin-3-yl]phenyl)-3-(2,2,2-trifluoroethyl)urea hydrochloride]	22 nM	0.0086 µM	440 nM	
CCN1CCC(n2cc(-c3ccn4c(-c5cccc(NC(=O)NCC(F)(F)F)c5)cnc4c3)cn2)C1 (stereo not drawn) [Example 44, 1-(3-{7-[1-(1-Ethyl-pyrrolidin-3-yl)-1H-pyrazol-4-yl)-imidazo[1,2-a]pyridin-3-yl}-phenyl)-3-(2,2,2-trifluoro-ethyl)-urea]	45 nM	0.022 µM	900 nM	
CNc1nc(-c2ccn3c(-c4cccc(NC(=O)NCC(F)(F)F)c4)cnc3c2)ncc1F [Example 162]		0.091 µM		inhibition at 3 µM [1, 4]: 37%; inhibition at 1 µM (VEGFR2; 1 h, read-out: VEGFR2 % I): 59%
CCNc1nc(-c2ccn3c(-c4cccc(NC(=O)NCC(F)(F)F)c4)cnc3c2)ncc1F [Example 177]				inhibition at 10 µM [1, 4]: 16%; IC50 (VEGFR2; […]): > 1000 nM; inhibition at 10 µM ([2]; LP-1, read-out: LP-1 pERK ELISA, % inhibition): 47%
Cc1nc(-c2ccn3c(-c4cccc(NC(=O)NCC(F)(F)F)c4)cnc3c2)cc(N(C)C)n1 [Example 198]	270 nM			inhibition at 3 µM [1, 4]: 39%
CC(C)c1nccc(-c2ccn3c(-c4cccc(NC(=O)NCC(F)(F)F)c4)cnc3c2)n1 [Example 233]			14.9 nM	inhibition at 3.1 µM (VEGFR2; 1 h, at 3.1 μM, read-out: VEGFR2 % I): 62%
Cc1nc(-c2ccn3c(-c4cccc(NC(=O)NCC(F)(F)F)c4)cnc3c2)cc(C(F)(F)F)n1 [Example 238]				inhibition at 10 µM [1, 4]: 41%; inhibition at 0.31 µM (VEGFR2; 1 h, at 0.31 μM, read-out: VEGFR2 % I): 40%
CCNC(=O)Nc1cccc(-c2cnc3cc(-c4ccnc(C(F)(F)F)n4)ccn23)c1 [Example 239]				inhibition at 3 µM [1, 4]: 26%; inhibition at 1 µM (VEGFR2; 1 h, read-out: VEGFR2 % I): 49%
Nc1nc(-c2ccn3c(-c4cccc(NC(=O)NCC(F)(F)F)c4)cnc3c2)cc(C(F)(F)F)n1 [Example 245]			2200 nM	inhibition at 0.3 µM (VEGFR2; 1 h, read-out: VEGFR2 % I): 43%
CCN(CC)CCc1nnc(-c2ccn3c(-c4cccc(NC(=O)NCC(F)(F)F)c4)cnc3c2)s1 [Example 246]			1000 nM	inhibition at 0.3 µM (VEGFR2; 1 h, read-out: VEGFR2 % I): 45%

The next lines start with results.

IC50 (Ba/F3-TEL-FGFR3 cells)	IC50 [2]	Compound	IC50 ([1]; BaF3)	other results
1500 nM	0.53 µM	CCN(CC)CCNC(=O)C(C)(C)n1cc(-c2ccn3c(-c4cccc(NC(=O)NCC(F)(F)F)c4)cnc3c2)cn1 [Example 68, N-(2-Diethylamino-ethyl)-2-[4-(3 {3-[3-(2,2,2-trifluoro-ethyl)-ureido]-phenyl}-imidazo[1,2-a]pyridin-7-yl)-pyrazol-1-yl]-isobutyramide]		inhibition at 10 µM [1, 3]: 36%
260 nM	0.096 µM	CNC(=O)C(C)(C)n1cc(-c2ccn3c(-c4cccc(NC(=O)NCC(F)(F)F)c4)cnc3c2)cn1 [Example 69, N-Methyl-2-[4-(3-{3-[3-(2,2,2-trifluoro-ethyl)-ureido]-phenyl}-imidazo[1,2-a]pyridin-7-yl)-pyrazol-1-yl]-isobutyramide]	4600 nM	
760 nM	0.3 µM	CC(C)(C(N)=O)n1cc(-c2ccn3c(-c4cccc(NC(=O)NCC(F)(F)F)c4)cnc3c2)cn1 [Example 72, 2-[4-(3-{3-[3-(2,2,2-Trifluoro-ethyl)-ureido]-phenyl}-imidazo[1,2-a]pyridin-7-yl)-pyrazol-1-yl]-isobutyramide]		inhibition at 10 µM [1, 3]: 32%
